Active and inactive are the calls of the source. No cut-off for these calls is given here.
Tests used:
[1] = biological target: T1, 5-hydroxytryptamine receptor 4 (Homo sapiens, UniProt Q13639); assay: Agonist activity at human recombinant 5HT4c receptor expressed in HEK293 cells at 10-fold physiological level assessed as accumulation of cAMP relative to 5HT; format: functional, cell-based
[2] = biological target: T1, 5-hydroxytryptamine receptor 4
hERG (KCNH2) = hERG (KCNH2) (Homo sapiens, UniProt Q12809); assay: Inhibition of human ERG expressed in CHO cells at 3 uM; conditions: CHO cells expressing human ERG
Sequence of hERG (KCNH2) (Q12809 whole entry): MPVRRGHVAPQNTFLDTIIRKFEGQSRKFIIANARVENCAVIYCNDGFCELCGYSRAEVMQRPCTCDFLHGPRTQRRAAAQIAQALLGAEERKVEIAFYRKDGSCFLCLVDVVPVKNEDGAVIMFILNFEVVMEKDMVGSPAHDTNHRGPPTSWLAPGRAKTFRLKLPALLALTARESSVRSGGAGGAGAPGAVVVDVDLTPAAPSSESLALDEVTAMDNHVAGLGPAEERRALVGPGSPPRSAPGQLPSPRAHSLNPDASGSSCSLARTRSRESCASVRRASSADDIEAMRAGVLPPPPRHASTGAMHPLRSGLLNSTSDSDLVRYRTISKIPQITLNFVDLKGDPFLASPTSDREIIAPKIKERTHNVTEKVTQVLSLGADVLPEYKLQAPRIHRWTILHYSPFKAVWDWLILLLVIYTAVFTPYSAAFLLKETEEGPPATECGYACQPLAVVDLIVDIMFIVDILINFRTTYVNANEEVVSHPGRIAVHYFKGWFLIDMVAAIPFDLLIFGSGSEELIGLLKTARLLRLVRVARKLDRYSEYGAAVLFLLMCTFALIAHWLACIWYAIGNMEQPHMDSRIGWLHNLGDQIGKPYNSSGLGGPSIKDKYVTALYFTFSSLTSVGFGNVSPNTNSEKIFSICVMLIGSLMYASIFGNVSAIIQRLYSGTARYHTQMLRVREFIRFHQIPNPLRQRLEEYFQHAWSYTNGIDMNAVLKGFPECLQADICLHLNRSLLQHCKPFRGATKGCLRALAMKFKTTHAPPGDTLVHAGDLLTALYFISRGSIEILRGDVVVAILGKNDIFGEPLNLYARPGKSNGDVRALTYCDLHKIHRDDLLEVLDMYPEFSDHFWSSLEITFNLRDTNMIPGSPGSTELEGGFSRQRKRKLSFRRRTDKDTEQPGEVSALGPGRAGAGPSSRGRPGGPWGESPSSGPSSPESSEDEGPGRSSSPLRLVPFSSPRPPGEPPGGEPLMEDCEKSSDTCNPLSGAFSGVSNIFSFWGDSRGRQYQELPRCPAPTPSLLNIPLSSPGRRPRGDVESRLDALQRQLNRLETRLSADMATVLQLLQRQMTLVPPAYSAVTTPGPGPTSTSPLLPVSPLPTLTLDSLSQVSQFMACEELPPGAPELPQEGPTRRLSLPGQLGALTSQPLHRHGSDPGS

[3] = biological target: T1, 5-hydroxytryptamine receptor 4; assay: biochemical
Description: Displacement of [3H]GR113808 from human recombinant 5HT4c receptor expressed in HEK293 cells

Homo sapiens = species: Homo sapiens; assay: Selectivity ratio of Ki for human 5HT3A receptor to Ki for human 5HT4c receptor
[4] = Permeability across human Caco2 cells; conditions: Caco-2
[5] = (§1) Half life in rat liver microsomes
[6] = biological target: T2, 5-hydroxytryptamine receptor 2C (Homo sapiens) (UniProt P28335); assay: Inhibition of 5HT2C receptor at 10 uM
T2 sequence (whole entry): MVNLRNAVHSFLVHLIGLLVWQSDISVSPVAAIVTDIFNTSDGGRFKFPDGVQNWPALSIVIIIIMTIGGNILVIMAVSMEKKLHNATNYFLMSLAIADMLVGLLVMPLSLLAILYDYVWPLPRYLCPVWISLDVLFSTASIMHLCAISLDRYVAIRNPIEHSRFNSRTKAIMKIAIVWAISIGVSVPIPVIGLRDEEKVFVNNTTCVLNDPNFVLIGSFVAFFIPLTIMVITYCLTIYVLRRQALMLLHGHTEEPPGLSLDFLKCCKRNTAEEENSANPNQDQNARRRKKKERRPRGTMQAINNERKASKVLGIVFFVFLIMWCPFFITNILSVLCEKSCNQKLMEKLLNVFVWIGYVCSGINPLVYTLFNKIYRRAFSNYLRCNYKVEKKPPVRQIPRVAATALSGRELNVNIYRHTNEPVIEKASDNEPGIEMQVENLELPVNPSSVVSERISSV

[7] = biological target: 5-hydroxytryptamine receptor 1B (Homo sapiens) (UniProt P28222); assay: Inhibition of 5HT1B receptor at 10 uM
Sequence of 5-hydroxytryptamine receptor 1B (Homo sapiens) (P28222 whole entry): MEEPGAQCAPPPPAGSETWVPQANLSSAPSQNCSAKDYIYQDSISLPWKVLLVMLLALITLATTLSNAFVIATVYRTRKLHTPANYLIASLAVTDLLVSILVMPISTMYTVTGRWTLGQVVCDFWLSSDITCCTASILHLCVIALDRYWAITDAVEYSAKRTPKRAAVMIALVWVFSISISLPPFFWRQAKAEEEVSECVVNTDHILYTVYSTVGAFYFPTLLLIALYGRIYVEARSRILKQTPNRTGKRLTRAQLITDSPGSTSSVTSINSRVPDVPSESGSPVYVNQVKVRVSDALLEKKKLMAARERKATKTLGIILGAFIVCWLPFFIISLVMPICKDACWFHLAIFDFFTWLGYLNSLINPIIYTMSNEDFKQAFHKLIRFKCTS

[8] = biological target: T3, 5-hydroxytryptamine receptor 7 (Homo sapiens, UniProt P34969); assay: Inhibition of 5HT7 receptor at 10 uM
T3 sequence (P34969 whole entry): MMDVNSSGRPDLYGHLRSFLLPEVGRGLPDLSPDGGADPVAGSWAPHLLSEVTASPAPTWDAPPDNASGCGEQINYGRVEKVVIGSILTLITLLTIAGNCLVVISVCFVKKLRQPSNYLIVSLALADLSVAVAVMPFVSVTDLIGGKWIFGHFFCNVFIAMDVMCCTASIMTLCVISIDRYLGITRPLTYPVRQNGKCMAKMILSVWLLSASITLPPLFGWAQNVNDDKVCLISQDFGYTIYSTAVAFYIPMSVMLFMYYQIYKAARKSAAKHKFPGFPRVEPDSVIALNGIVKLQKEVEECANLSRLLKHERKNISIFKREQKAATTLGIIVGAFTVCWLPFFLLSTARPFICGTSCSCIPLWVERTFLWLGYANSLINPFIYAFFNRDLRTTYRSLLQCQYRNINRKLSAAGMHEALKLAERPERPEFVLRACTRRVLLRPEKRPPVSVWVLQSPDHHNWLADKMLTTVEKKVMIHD

[9] = biological target: T4, 5-hydroxytryptamine receptor 1A (Homo sapiens) (UniProt P08908); assay: Inhibition of 5HT1A receptor at 10 uM
T4 sequence (whole entry): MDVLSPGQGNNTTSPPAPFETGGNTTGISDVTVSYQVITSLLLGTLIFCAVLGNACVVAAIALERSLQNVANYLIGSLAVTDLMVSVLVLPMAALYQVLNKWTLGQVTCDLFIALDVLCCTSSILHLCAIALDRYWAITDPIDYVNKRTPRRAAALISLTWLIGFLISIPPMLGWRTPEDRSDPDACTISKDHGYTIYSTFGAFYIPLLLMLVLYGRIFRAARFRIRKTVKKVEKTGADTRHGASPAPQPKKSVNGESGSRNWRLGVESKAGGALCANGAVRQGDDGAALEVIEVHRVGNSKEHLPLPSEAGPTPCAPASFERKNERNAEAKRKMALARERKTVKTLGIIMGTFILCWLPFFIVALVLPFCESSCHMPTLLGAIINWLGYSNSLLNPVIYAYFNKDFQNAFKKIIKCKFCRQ

[10] = biological target: T5, 5-hydroxytryptamine receptor 3A (Homo sapiens) (UniProt P46098); assay: Inhibition of 5HT3A receptor at 10 uM
T5 sequence (whole entry): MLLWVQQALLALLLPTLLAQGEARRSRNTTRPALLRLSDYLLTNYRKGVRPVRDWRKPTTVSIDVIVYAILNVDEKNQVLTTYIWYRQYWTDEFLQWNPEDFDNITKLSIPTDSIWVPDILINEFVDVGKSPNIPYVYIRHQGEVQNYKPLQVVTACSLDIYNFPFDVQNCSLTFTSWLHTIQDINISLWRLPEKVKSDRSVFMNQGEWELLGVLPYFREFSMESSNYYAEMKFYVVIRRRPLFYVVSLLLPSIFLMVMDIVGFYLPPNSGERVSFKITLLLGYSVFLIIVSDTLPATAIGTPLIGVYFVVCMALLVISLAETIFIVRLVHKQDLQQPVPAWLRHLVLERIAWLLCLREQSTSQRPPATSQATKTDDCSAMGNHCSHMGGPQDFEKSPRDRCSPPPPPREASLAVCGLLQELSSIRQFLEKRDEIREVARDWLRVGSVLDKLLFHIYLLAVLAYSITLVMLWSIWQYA

Rattus norvegicus = assay: Induction of 5HT4-receptor mediated esophagal relaxation in iv dosed Sprague-Dawley rat; format: functional
[11] = biological target: 5-hydroxytryptamine receptor 2B (Homo sapiens) (UniProt P41595); assay: Inhibition of 5HT2B receptor at 10 uM
Sequence of 5-hydroxytryptamine receptor 2B (Homo sapiens) (P41595 whole entry): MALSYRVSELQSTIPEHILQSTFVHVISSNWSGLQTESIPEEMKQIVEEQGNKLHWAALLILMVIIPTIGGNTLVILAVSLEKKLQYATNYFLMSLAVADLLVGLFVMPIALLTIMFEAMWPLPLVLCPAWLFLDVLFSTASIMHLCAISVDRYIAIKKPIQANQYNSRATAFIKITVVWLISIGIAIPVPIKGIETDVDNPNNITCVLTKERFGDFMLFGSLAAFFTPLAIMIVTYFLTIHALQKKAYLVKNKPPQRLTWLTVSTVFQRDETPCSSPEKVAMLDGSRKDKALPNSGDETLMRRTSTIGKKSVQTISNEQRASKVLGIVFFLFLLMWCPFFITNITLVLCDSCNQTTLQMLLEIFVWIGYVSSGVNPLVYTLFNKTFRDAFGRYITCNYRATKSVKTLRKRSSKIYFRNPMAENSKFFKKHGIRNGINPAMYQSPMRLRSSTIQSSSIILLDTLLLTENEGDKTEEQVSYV

[12] = biological target: 5-hydroxytryptamine receptor 5A (Homo sapiens) (UniProt P47898); assay: Inhibition of 5HT5A receptor at 10 uM
Sequence of 5-hydroxytryptamine receptor 5A (Homo sapiens) (P47898 whole entry): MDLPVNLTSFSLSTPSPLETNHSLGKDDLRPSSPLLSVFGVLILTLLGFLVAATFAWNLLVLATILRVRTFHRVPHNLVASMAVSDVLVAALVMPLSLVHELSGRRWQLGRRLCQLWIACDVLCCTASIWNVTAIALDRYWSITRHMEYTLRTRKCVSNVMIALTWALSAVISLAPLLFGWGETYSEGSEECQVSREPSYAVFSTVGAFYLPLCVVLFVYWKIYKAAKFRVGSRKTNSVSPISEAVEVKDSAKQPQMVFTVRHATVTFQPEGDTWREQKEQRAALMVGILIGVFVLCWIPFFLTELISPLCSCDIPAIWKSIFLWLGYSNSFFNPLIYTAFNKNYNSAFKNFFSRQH

in vivo [13] = conditions: Sprague-Dawley, rat, po, 5 mg/kg
in vivo [14] = conditions: Sprague-Dawley, rat, po, 5 mg/kg; remark: listed apart in the source
Cavia porcellus [15] = assay: Prokinetic activity in sc dosed guinea pig colon assessed as increase in distance traveled by carmine red dye after 60 mins relative to vehicle-treated control; format: functional, organism-based
[16] = biological target: 5-hydroxytryptamine receptor 1D (Homo sapiens) (UniProt P28221); assay: Inhibition of 5HT1D receptor at 10 uM
Sequence of 5-hydroxytryptamine receptor 1D (Homo sapiens) (P28221 whole entry): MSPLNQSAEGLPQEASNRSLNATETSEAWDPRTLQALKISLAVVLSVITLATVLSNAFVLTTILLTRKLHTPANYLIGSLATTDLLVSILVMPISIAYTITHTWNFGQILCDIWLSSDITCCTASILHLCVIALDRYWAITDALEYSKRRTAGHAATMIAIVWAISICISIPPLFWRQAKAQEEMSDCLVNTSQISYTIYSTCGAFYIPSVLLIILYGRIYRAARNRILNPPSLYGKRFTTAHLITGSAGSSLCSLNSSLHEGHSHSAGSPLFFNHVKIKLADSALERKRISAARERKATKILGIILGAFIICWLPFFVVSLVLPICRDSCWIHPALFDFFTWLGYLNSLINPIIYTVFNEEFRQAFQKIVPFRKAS

[17] = biological target: 5-hydroxytryptamine receptor 4 (Cavia porcellus, UniProt O70528); assay: Agonist activity at 5HT4 receptor in guinea pig colonic longitudinal muscle/myenteric plexus assessed as contraction
Sequence of 5-hydroxytryptamine receptor 4 (Cavia porcellus, UniProt O70528) (O70528 whole entry): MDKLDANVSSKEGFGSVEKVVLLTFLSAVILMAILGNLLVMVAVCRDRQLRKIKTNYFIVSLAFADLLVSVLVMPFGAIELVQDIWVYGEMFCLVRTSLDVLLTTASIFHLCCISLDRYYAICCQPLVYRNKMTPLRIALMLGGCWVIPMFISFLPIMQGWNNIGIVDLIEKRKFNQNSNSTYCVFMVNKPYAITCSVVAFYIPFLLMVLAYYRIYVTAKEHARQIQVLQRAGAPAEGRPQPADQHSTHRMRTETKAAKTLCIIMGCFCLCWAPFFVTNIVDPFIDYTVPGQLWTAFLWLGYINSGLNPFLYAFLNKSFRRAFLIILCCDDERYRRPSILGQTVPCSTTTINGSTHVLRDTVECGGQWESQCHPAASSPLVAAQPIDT

[18] = biological target: 5-hydroxytryptamine receptor 6 (Homo sapiens) (UniProt P50406); assay: Inhibition of 5HT6 receptor at 10 uM
Sequence of 5-hydroxytryptamine receptor 6 (Homo sapiens) (P50406 whole entry): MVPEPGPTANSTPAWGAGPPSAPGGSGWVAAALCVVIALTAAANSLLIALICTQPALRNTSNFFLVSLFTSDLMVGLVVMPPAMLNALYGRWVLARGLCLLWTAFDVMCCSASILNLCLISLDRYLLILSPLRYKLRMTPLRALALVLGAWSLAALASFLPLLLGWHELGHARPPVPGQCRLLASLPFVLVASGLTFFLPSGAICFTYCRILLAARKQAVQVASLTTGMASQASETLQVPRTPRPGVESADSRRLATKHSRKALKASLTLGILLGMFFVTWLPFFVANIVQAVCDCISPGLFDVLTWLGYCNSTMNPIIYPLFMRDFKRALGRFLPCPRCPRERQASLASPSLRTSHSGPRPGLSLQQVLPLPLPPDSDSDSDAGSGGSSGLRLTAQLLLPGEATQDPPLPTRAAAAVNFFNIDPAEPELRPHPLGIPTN

[19] = biological target: 5-hydroxytryptamine receptor 2A (Homo sapiens) (UniProt P28223); assay: Inhibition of 5HT2A receptor at 10 uM
Sequence of 5-hydroxytryptamine receptor 2A (Homo sapiens) (P28223 whole entry): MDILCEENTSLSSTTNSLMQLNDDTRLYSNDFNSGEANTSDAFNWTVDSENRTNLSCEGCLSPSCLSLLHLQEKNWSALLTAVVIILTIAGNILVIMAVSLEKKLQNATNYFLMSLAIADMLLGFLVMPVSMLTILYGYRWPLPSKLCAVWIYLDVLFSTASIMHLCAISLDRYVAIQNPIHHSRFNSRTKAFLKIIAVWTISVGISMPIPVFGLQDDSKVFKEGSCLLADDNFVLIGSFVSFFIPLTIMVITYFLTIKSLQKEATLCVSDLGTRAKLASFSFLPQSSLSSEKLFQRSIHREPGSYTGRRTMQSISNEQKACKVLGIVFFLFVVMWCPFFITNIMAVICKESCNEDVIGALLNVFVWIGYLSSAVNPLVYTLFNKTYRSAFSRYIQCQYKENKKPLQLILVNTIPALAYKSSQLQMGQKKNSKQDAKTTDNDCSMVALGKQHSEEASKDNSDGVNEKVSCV

[20] = biological target: T3, 5-hydroxytryptamine receptor 7; assay: Binding affinity to 5HT7 receptor
[21] = Elimination half life in healthy human administered QD; format: ADME, organism-based; conditions: in vivo, read-out: beta t1/2 (converted)
[22] = Half life in Sprague-Dawley rat at 5 mg/kg, po; format: ADME, organism-based; set-up: dose 5 mg/kg, route oral; conditions: in vivo
Cavia porcellus [23] = assay: Prokinetic activity in guinea pig colon assessed as decrease in carmine red dye transit time at 0.3 mg/kg, sc relative to vehicle-treated control; format: functional, organism-based; set-up: dose 0.3 mg/kg
Liver microsomes = assay: as §1; conditions: microsomes

T1 sequence (Q13639 whole entry): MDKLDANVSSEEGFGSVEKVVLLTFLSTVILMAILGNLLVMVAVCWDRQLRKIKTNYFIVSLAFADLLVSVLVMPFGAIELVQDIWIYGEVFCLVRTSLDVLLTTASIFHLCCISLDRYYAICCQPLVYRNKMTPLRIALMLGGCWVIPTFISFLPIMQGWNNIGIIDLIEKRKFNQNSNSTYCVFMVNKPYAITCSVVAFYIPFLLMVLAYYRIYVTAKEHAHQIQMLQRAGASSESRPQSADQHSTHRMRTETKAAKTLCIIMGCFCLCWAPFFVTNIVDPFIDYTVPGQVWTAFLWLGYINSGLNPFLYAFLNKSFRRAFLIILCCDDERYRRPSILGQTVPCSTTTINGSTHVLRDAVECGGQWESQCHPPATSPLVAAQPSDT

SMILES	Intrinsic activity [1]	EC50 [2]	Ki [3]	Ratio Ki (Homo sapiens)	Papp [4]	half-life ([5]; liver microsomes)	also measured
CC(C)n1c(=O)c(C(=O)N[C@H]2C[C@H]3CC[C@@H](C2)N3CC(O)CNS(C)(=O)=O)cc2ccccc21 (mixture of isomers)	107%	0.00794 µM	0.02 µM	1200	–	–	inhibition at 3 µM (hERG (KCNH2)): 10%
CC(C)n1c(=O)c(C(=O)N[C@H]2C[C@H]3CC[C@@H](C2)N3CC(O)CN(C)C(N)=O)cc2ccccc21 (mixture of isomers)	95%	0.02 µM	0.0501 µM	1800	1 ×10⁻⁶ cm/s	–	half-life ([5]; microsomes): > 1.5 h
CC(C)n1c(=O)c(C(=O)N[C@H]2C[C@H]3CC[C@@H](C2)N3C[C@@H](O)CN2CCN(S(C)(=O)=O)CC2)cc2ccccc21	114%	–	–	7400	–	–	half-life ([5]; microsomes): > 1.5 h
CC(=O)N1CCN(CCN2[C@@H]3CC[C@H]2C[C@@H](NC(=O)c2nn(C(C)C)c4ccccc24)C3)CC1	–	–	–	980	–	> 1.5 h	–
CC(C)n1c(=O)c(C(=O)N[C@H]2C[C@H]3CC[C@@H](C2)N3CC(O)CN(C)C(=O)N(C)C)cc2ccccc21 (mixture of isomers)	87%	0.02 µM	0.0501 µM	260	33 ×10⁻⁶ cm/s	> 1.5 h	inhibition at 3 µM (hERG (KCNH2)): 64%
CC(C)n1c(=O)c(C(=O)N[C@H]2C[C@H]3CC[C@@H](C2)N3CC(O)CNC(N)=O)cc2ccccc21 (mixture of isomers)	82%	0.00501 µM	0.0158 µM	3300	–	> 1.5 h	–
CC(C)n1c(=O)c(C(=O)N[C@H]2C[C@H]3CC[C@@H](C2)N3C[C@@H](O)CN(C)S(C)(=O)=O)cc2ccccc21	95%	–	–	–	–	> 1.5 h	inhibition [6]: < 50%; inhibition [7]: < 50%; inhibition [8]: < 50%; inhibition [9]: < 50%; inhibition [10]: < 50%; Activity (Rattus norvegicus): Dose-dependent effect; ED50 (Rattus norvegicus): 0.025 mg/kg; inhibition [11]: < 50%; inhibition [12]: < 50%; AUC(0-t) (in vivo [13]): 460 ng·h/mL; Cmax (in vivo [14]): 160 ng/mL; Activity (Cavia porcellus [15]): Active; inhibition [16]: < 50%; EC50 [17]: 0.0126 µM; inhibition [18]: < 50%; inhibition [19]: < 50%; Ki [20]: < 0.1 µM; half-life [21]: 12 h; half-life [22]: 1.9 h; Activity (Cavia porcellus [23]): Active
COC(=O)NCC(O)CN1[C@@H]2CC[C@H]1C[C@@H](NC(=O)c1cc3ccccc3n(C(C)C)c1=O)C2 (mixture of isomers)	–	–	0.0501 µM	1600	35 ×10⁻⁶ cm/s	–	inhibition at 3 µM (hERG (KCNH2)): 74%; half-life ([5]; microsomes): > 1.5 h
CNC(=O)N(C)CC(O)CN1[C@@H]2CC[C@H]1C[C@@H](NC(=O)c1cc3ccccc3n(C(C)C)c1=O)C2 (mixture of isomers)	95%	0.0316 µM	0.1 µM	870	–	–	–
CC(=O)N(C)CC(O)CN1[C@@H]2CC[C@H]1C[C@@H](NC(=O)c1cc3ccccc3n(C(C)C)c1=O)C2 (mixture of isomers)	95%	0.0126 µM	0.0398 µM	1500	16 ×10⁻⁶ cm/s	> 1.5 h	inhibition at 3 µM (hERG (KCNH2)): 11%
COC(=O)N(C)CC(O)CN1[C@@H]2CC[C@H]1C[C@@H](NC(=O)c1cc3ccccc3n(C(C)C)c1=O)C2 (mixture of isomers)	84%	0.01 µM	0.0398 µM	710	35 ×10⁻⁶ cm/s	> 1.5 h	inhibition at 3 µM (hERG (KCNH2)): 40%
COc1cc(N)c(Cl)cc1C(=O)N[C@H]1CCN(CCCOc2ccc(F)cc2)C[C@H]1OC (relative stereo) [REL-CISAPRIDE]	71	–	–	–	–	–	t1/2 (Liver microsomes): 0.783 h
CNC(=O)NCC(O)CN1[C@@H]2CC[C@H]1C[C@@H](NC(=O)c1cc3ccccc3n(C(C)C)c1=O)C2 (mixture of isomers)	82%	0.0126 µM	0.0251 µM	2400	–	> 1.5 h	–
CCCCCNC(=N)N/N=C/c1c[nH]c2ccc(OC)cc12 [TEGASEROD]	92%	0.00251 µM	–	580	–	> 1.5 h	ED50 (Rattus norvegicus): 0.011 mg/kg
CC(C)n1c(=O)c(C(=O)N[C@H]2C[C@H]3CC[C@@H](C2)N3C[C@H](O)CN(C)S(C)(=O)=O)cc2ccccc21	97%	–	–	–	–	> 1.5 h	–
CC(C)n1c(=O)c(C(=O)N[C@H]2C[C@H]3CC[C@@H](C2)N3CC(O)CNC(=O)N(C)C)cc2ccccc21 (mixture of isomers)	–	–	0.1 µM	860	3 ×10⁻⁶ cm/s	> 1.5 h	–
CC(=O)NCC(O)CN1[C@@H]2CC[C@H]1C[C@@H](NC(=O)c1cc3ccccc3n(C(C)C)c1=O)C2 (mixture of isomers)	96%	0.00631 µM	0.0316 µM	2200	6 ×10⁻⁶ cm/s	> 1.5 h	–
CC(C)n1c(=O)c(C(=O)N[C@H]2C[C@H]3CC[C@@H](C2)N3CC(O)CN(C)S(C)(=O)=O)cc2ccccc21 (mixture of isomers)	96%	–	–	–	–	> 1.5 h	–

Reference: ChEMBL document CHEMBL2086223 (Bioorg Med Chem Lett, 2012)
